Experimental data from patent publication US20230398130A1, “METHODS AND COMPOSITIONS FOR DIFFERENTIATING STEM CELLS” (Massachusetts Institute of Technology, priority 2020, published 2023).

Assays:
ISC-enriched organoids [1] = experiment: Primary screen, 384-well 2.5-D organoid differentiation (ENR+CD, 6 days): basal lysozyme secretion (LYZ.NS); assay type: cell-based, murine; conditions: for Dose.FC.LYZ.NS: FC vs plate median; for SSMD.LYZ.NS: strictly standardized mean difference
From the text: (§1) High-throughput screening.

ISC-enriched organoids [2] = experiment: Primary screen, 384-well 2.5-D organoid differentiation (ENR+CD, 6 days): carbachol-induced lysozyme secretion (LYZ.S); assay type: cell-based, murine; conditions: for Dose.FC.LYZ.S: FC vs plate median; for Z.LYZ.S: standard z score; for SSMD.LYZ.S: strictly standardized mean difference
From the text: as §1

ISC-enriched organoids [3] = experiment: Primary screen, 384-well 2.5-D organoid differentiation (ENR+CD, 6 days, Target Selective Inhibitor Library, vs whole-plate median): ATP (CellTiter-Glo 3D, CTG); conditions: for Dose.FC.CTG: FC vs plate median; for SSMD.CTG: strictly standardized mean difference
[4] = Dose 0.08 uM, standard z score of FC
[5] = Dose 0.40 uM, standard z score of FC
[6] = Dose 2.00 uM, standard z score of FC
[7] = Dose 10.00 uM, standard z score of FC
[8] = primary screen, 1st of the 4 dose lines of the treatment (dose not given)
[9] = primary screen, 2nd of the 4 dose lines of the treatment (dose not given)
[10] = primary screen, 3rd of the 4 dose lines of the treatment (dose not given)
[11] = primary screen, 4th of the 4 dose lines of the treatment (dose not given)
[12] = Dose 0.08 uM, primary screen, standard z score
[13] = Dose 0.40 uM, primary screen, standard z score
[14] = Dose 2.00 uM, primary screen, standard z score
[15] = Dose 10.00 uM, primary screen, standard z score

Compound | SSMD.LYZ.NS (ISC-enriched organoids [1]; [8]) | SSMD.LYZ.NS (ISC-enriched organoids [1]; [9]) | SSMD.LYZ.NS (ISC-enriched organoids [1]; [10]) | SSMD.LYZ.NS (ISC-enriched organoids [1]; [11]) | Z.LYZ.S (ISC-enriched organoids [2]; [8]) | Z.LYZ.S (ISC-enriched organoids [2]; [9]) | Z.LYZ.S (ISC-enriched organoids [2]; [10]) | Z.LYZ.S (ISC-enriched organoids [2]; [11]) | SSMD.LYZ.S (ISC-enriched organoids [2]; [8]) | SSMD.LYZ.S (ISC-enriched organoids [2]; [9]) | SSMD.LYZ.S (ISC-enriched organoids [2]; [10]) | SSMD.LYZ.S (ISC-enriched organoids [2]; [11]) | Z.CTG (ISC-enriched organoids [3]; [12]) | Z.CTG (ISC-enriched organoids [3]; [13]) | Z.CTG (ISC-enriched organoids [3]; [14]) | Z.CTG (ISC-enriched organoids [3]; [15]) | SSMD.CTG (ISC-enriched organoids [3]; [8]) | SSMD.CTG (ISC-enriched organoids [3]; [9]) | SSMD.CTG (ISC-enriched organoids [3]; [10]) | SSMD.CTG (ISC-enriched organoids [3]; [11]) | further results
CCC(CC)CC1(C(=O)Nc2ccccc2SC(=O)C(C)C)CCCCC1 [Dalcetrapib (JTT-705, RO4607381)] | – | – | – | – | – | – | – | – | – | – | – | – | – | – | – | – | – | – | – | – | Dose.FC.LYZ.NS (ISC-enriched organoids [1]; Dose 0.08 uM, ENR+CD, 6 days): 0.055 log 2 fold change; Z.LYZ.NS (ISC-enriched organoids [1]; [4]): 0.475; Dose.FC.LYZ.NS (ISC-enriched organoids [1]; Dose 0.40 uM, ENR+CD, 6 days): −0.037 log 2 fold change; Z.LYZ.NS (ISC-enriched organoids [1]; [5]): −0.324; Dose.FC.LYZ.NS (ISC-enriched organoids [1]; Dose 2.00 uM, ENR+CD, 6 days): −0.034 log 2 fold change; Z.LYZ.NS (ISC-enriched organoids [1]; [6]): −0.296; Dose.FC.LYZ.NS (ISC-enriched organoids [1]; Dose 10.00 uM, ENR+CD, 6 days): −0.074 log 2 fold change; Z.LYZ.NS (ISC-enriched organoids [1]; [7]): −0.643; Dose.FC.LYZ.S (ISC-enriched organoids [2]; Dose 0.08 uM, ENR+CD, 6 days): 0.049 log 2 fold change; Dose.FC.LYZ.S (ISC-enriched organoids [2]; Dose 0.40 uM, ENR+CD, 6 days): 0.104 log 2 fold change; Dose.FC.LYZ.S (ISC-enriched organoids [2]; Dose 2.00 uM, ENR+CD, 6 days): 0.098 log 2 fold change; Dose.FC.LYZ.S (ISC-enriched organoids [2]; Dose 10.00 uM, ENR+CD, 6 days): −0.113 log 2 fold change; Dose.FC.CTG (ISC-enriched organoids [3]; Dose 0.08 uM, ENR+CD, 6 days): 0.112 log 2 fold change; Z.CTG (ISC-enriched organoids [3]; [4]): 0.268; Dose.FC.CTG (ISC-enriched organoids [3]; Dose 0.40 uM, ENR+CD, 6 days): −0.006 log 2 fold change; Z.CTG (ISC-enriched organoids [3]; [5]): −0.014; Dose.FC.CTG (ISC-enriched organoids [3]; Dose 2.00 uM, ENR+CD, 6 days): 0.079 log 2 fold change; Z.CTG (ISC-enriched organoids [3]; [6]): 0.188; Dose.FC.CTG (ISC-enriched organoids [3]; Dose 10.00 uM, ENR+CD, 6 days): 0.136 log 2 fold change; Z.CTG (ISC-enriched organoids [3]; [7]): 0.324
CCn1c(=O)c2c(nc(/C=C/c3ccc(OC)c(OC)c3)n2C)n(CC)c1=O [Istradefylline] | −0.084 | −0.362 | −0.012 | −0.336 | −0.190 | −0.560 | −0.621 | −0.367 | −0.139 | −0.661 | −0.578 | −0.289 | −0.107 | 0.158 | −0.375 | −0.091 | −0.113 | 0.225 | −0.412 | −0.106 | –
CC(C)CCNC(=O)[C@H](CC(C)C)NC(=O)[C@H]1O[C@@H]1C(=O)O [Loxistatin Acid (E-64C)] | 0.757 | 0.330 | 0.411 | 0.027 | 0.808 | 0.677 | 0.238 | 0.138 | 0.833 | 0.449 | 0.159 | 0.141 | 0.206 | 0.373 | 0.191 | 0.224 | 0.218 | 0.402 | 0.176 | 0.270 | Dose.FC.LYZ.NS (ISC-enriched organoids [1]; Dose 0.08 uM, primary screen): 0.147 log 2 fold change; Z.LYZ.NS (ISC-enriched organoids [1]; [12]): 1.283; Dose.FC.LYZ.NS (ISC-enriched organoids [1]; Dose 0.40 uM, primary screen): 0.061 log 2 fold change; Z.LYZ.NS (ISC-enriched organoids [1]; [13]): 0.534; Dose.FC.LYZ.NS (ISC-enriched organoids [1]; Dose 2.00 uM, primary screen): 0.055 log 2 fold change; Z.LYZ.NS (ISC-enriched organoids [1]; [14]): 0.482; Dose.FC.LYZ.NS (ISC-enriched organoids [1]; Dose 10.00 uM, primary screen): 0.004 log 2 fold change; Z.LYZ.NS (ISC-enriched organoids [1]; [15]): 0.031; Dose.FC.LYZ.S (ISC-enriched organoids [2]; Dose 0.08 uM, primary screen): 0.125 log 2 fold change; Dose.FC.LYZ.S (ISC-enriched organoids [2]; Dose 0.40 uM, primary screen): 0.105 log 2 fold change; Dose.FC.LYZ.S (ISC-enriched organoids [2]; Dose 2.00 uM, primary screen): 0.037 log 2 fold change; Dose.FC.LYZ.S (ISC-enriched organoids [2]; Dose 10.00 uM, primary screen): 0.021 log 2 fold change; Dose.FC.CTG (ISC-enriched organoids [3]; Dose 0.08 uM, primary screen): 0.086 log 2 fold change; Dose.FC.CTG (ISC-enriched organoids [3]; Dose 0.40 uM, primary screen): 0.156 log 2 fold change; Dose.FC.CTG (ISC-enriched organoids [3]; Dose 2.00 uM, primary screen): 0.080 log 2 fold change; Dose.FC.CTG (ISC-enriched organoids [3]; Dose 10.00 uM, primary screen): 0.094 log 2 fold change
HA14-1 | 1.056 | 1.013 | 1.483 | 0.640 | 1.231 | 2.041 | 1.099 | 0.964 | 1.264 | 1.052 | 1.202 | 0.449 | 1.276 | 1.255 | 1.323 | 0.926 | 1.389 | 1.961 | 2.075 | 1.289 | Dose.FC.LYZ.NS (ISC-enriched organoids [1]; Dose 0.08 uM, primary screen): 0.121 log 2 fold change; Z.LYZ.NS (ISC-enriched organoids [1]; [12]): 1.052; Dose.FC.LYZ.NS (ISC-enriched organoids [1]; Dose 0.40 uM, primary screen): 0.137 log 2 fold change; Z.LYZ.NS (ISC-enriched organoids [1]; [13]): 1.195; Dose.FC.LYZ.NS (ISC-enriched organoids [1]; Dose 2.00 uM, primary screen): 0.154 log 2 fold change; Z.LYZ.NS (ISC-enriched organoids [1]; [14]): 1.345; Dose.FC.LYZ.NS (ISC-enriched organoids [1]; Dose 10.00 uM, primary screen): 0.132 log 2 fold change; Z.LYZ.NS (ISC-enriched organoids [1]; [15]): 1.151; Dose.FC.LYZ.S (ISC-enriched organoids [2]; Dose 0.08 uM, primary screen): 0.190 log 2 fold change; Dose.FC.LYZ.S (ISC-enriched organoids [2]; Dose 0.40 uM, primary screen): 0.316 log 2 fold change; Dose.FC.LYZ.S (ISC-enriched organoids [2]; Dose 2.00 uM, primary screen): 0.170 log 2 fold change; Dose.FC.LYZ.S (ISC-enriched organoids [2]; Dose 10.00 uM, primary screen): 0.149 log 2 fold change; Dose.FC.CTG (ISC-enriched organoids [3]; Dose 0.08 uM, primary screen): 0.534 log 2 fold change; Dose.FC.CTG (ISC-enriched organoids [3]; Dose 0.40 uM, primary screen): 0.526 log 2 fold change; Dose.FC.CTG (ISC-enriched organoids [3]; Dose 2.00 uM, primary screen): 0.554 log 2 fold change; Dose.FC.CTG (ISC-enriched organoids [3]; Dose 10.00 uM, primary screen): 0.388 log 2 fold change
